Data: the supplement of paper PMC10307832

What was measured:
Experiment in all cases: relative viability (nuclei count vs DMSO), 5 days (fraction); higher = more cells survive
Alpelisib = compound: Cc1nc(NC(=O)N2CCC[C@H]2C(N)=O)sc1-c1ccnc(C(C)(C)C(F)(F)F)c1 [Alpelisib]
Procedure, shortened: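 Vehicle-anchored 1536-well plates of lung cancer cell lines, held overnight at 37 °C, were pinned with five library-drug doses (not always all listed) spaced by √10. No medium change followed over the next 5 days, after which the cells were fixed, permeabilised and Hoechst-stained together and imaged at 4×. Nuclei were counted with MetaXpress, and viability is treated-well nuclei over vehicle-well nuclei, taken as a median across plates. Plates passed with control CV below 25% and at least one doubling.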

OSI-027 + Bortezomib = compound: COc1cccc2cc(-c3nc([C@H]4CC[C@H](C(=O)O)CC4)n4ncnc(N)c34)[nH]c12 [OSI-027] + CC(C)C[C@H](NC(=O)[C@H](Cc1ccccc1)NC(=O)c1cnccn1)B(O)O [Bortezomib] (partner 0.002 µM)
Procedure, shortened: (§1)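 Relative viability divides the nuclei count in treated wells by that in vehicle wells. Lung cancer cell lines were seeded in 1536-well plates, dosed by pin tool the next day, and fixed and stained after 5 days in one step with final 0.05% Triton X-100, 1% formaldehyde and 1 ug/ml Hoechst. Dosing was a single drug or a fixed anchor-drug dose plus five library-drug doses (not always all listed) in √10 steps, and values are medians of duplicate plates imaged at 4×.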

OSI-027 + Linsitinib = compound: COc1cccc2cc(-c3nc([C@H]4CC[C@H](C(=O)O)CC4)n4ncnc(N)c34)[nH]c12 [OSI-027] + C[C@]1(O)C[C@@H](c2nc(-c3ccc4ccc(-c5ccccc5)nc4c3)c3c(N)nccn32)C1 [Linsitinib] (partner 1 µM)
Procedure, shortened: as §1

Cell Line | relative viability (Alpelisib; 0.04 µM) | relative viability (Alpelisib; 0.1265 µM) | relative viability (Alpelisib; 0.4 µM) | relative viability (Alpelisib; 1.265 µM) | relative viability (Alpelisib; 2 µM, anchor plate) | relative viability (Alpelisib; 4 µM) | relative viability (OSI-027 + Bortezomib; first compound 0.01 µM) | relative viability (OSI-027 + Bortezomib; first compound 0.03162 µM) | relative viability (OSI-027 + Bortezomib; first compound 0.1 µM) | relative viability (OSI-027 + Bortezomib; first compound 0.3162 µM) | relative viability (OSI-027 + Bortezomib; first compound 1 µM) | relative viability (OSI-027 + Linsitinib; first compound 0.01 µM) | relative viability (OSI-027 + Linsitinib; first compound 0.03162 µM) | relative viability (OSI-027 + Linsitinib; first compound 0.1 µM) | relative viability (OSI-027 + Linsitinib; first compound 0.3162 µM) | relative viability (OSI-027 + Linsitinib; first compound 1 µM)
LU99A | 0.899 | 0.96 | 1.04 | 0.773 | 0.511 | 0.696 | 1.11 | 0.967 | 0.981 | 0.604 | 0.252 | 0.51 | 0.471 | 0.355 | 0.243 | 0.198
NCI-H2009 | 0.974 | 1.05 | 1.19 | 1.01 | 1.13 | 0.903 | 1.07 | 1.09 | 0.933 | 0.929 | 0.592 | 1.25 | 1.2 | 1.16 | 1.03 | 0.765
LCLC-97TM1 | 0.873 | 0.845 | 1.01 | 0.796 | 0.257 | 0.521 | 0.271 | 0.554 | 0.369 | 0.154 | 0.193 | 0.19 | 0.182 | 0.139 | 0.117 | 0.123
NCI-H1915 | 1.01 | 0.998 | 0.976 | 0.948 | 1.06 | 0.893 | 1.04 | 0.995 | 1.04 | 0.968 | 0.898 | 1.11 | 1.13 | 1.12 | 1.02 | 0.863
NCI-H2342 | 0.927 | 1.05 | 0.926 | 0.79 |  | 0.675 |  |  |  |  |  |  |  |  |  | 
EKVX | 0.927 | 0.921 | 1.12 | 0.821 | 0.893 | 0.614 | 1.03 | 0.942 | 1.11 | 0.972 | 0.649 | 0.986 | 0.894 | 0.779 | 0.652 | 0.292
HCC-78 | 0.93 | 0.798 | 0.897 | 0.664 | 0.378 | 0.655 | 0.611 | 0.428 | 0.454 | 0.344 | 0.35 | 0.469 | 0.386 | 0.296 | 0.255 | 0.232
A549 | 0.905 | 0.877 | 0.953 | 0.774 | 0.84 | 0.538 |  |  |  |  |  | 0.582 | 0.479 | 0.372 | 0.263 | 0.0989
NCI-H2126 | 1.02 | 1.01 | 0.936 | 0.791 | 0.746 | 0.758 | 1.02 | 1.13 | 1.05 | 0.989 | 0.87 | 0.739 | 0.593 | 0.536 | 0.416 | 0.701
HCC-827 | 1.02 | 0.935 | 1.05 | 0.981 | 0.945 | 1 | 0.973 | 1.07 | 1.06 | 1.12 | 1.05 | 0.979 | 1.03 | 0.935 | 0.943 | 0.552
NCI-H1650 | 0.935 | 0.801 | 1.06 | 0.814 |  | 0.815 | 0.171 | 0.195 | 0.206 | 0.201 | 0.19 |  |  |  |  | 
NCI-H1703 | 0.89 | 0.642 | 0.654 | 0.465 | 0.348 | 0.462 | 0.361 | 0.302 | 0.238 | 0.233 | 0.187 | 0.381 | 0.788 | 0.767 | 0.48 | 0.56
LK-2 | 0.885 | 0.868 | 0.685 | 0.563 | 1.1 | 0.599 |  |  |  |  |  | 0.523 | 0.184 | 0.396 | 0.289 | 0.138
PC-14 | 1.01 | 1 | 1.03 | 0.89 | 0.908 | 0.973 | 1.03 | 0.93 | 0.955 | 0.989 | 0.652 | 0.944 | 0.946 | 0.891 | 0.914 | 0.582
NCI-H1355 | 0.944 | 0.96 | 1 | 0.876 | 0.855 | 0.867 | 1.24 | 1.19 | 1.01 | 0.926 | 0.528 | 0.759 | 0.687 | 0.643 | 0.374 | 0.218
LXF-289 | 0.988 | 1.11 | 1.05 | 1 | 1.06 | 0.961 | 1.03 | 1.05 | 1.05 | 0.984 | 0.837 | 0.995 | 1.06 | 0.972 | 0.956 | 0.445
LOU-NH91 | 0.961 | 0.806 | 0.859 | 0.753 | 0.732 | 0.604 | 0.452 | 0.486 | 0.473 | 0.546 | 0.455 | 0.954 | 0.902 | 0.808 | 0.69 | 0.521
NCI-H2170 | 0.946 | 0.868 | 1.07 | 0.769 | 0.825 | 0.621 |  |  |  |  |  |  |  |  |  | 
SK-MES-1 | 0.975 | 0.998 | 1.09 | 0.894 | 0.896 | 0.757 |  |  |  |  |  | 1.01 | 0.956 | 0.911 | 0.737 | 0.538
SW 900 | 0.944 | 0.7 | 1 | 0.789 |  | 0.651 |  |  |  |  |  |  |  |  |  | 
NCI-H358 | 0.873 | 0.889 | 0.95 | 0.586 | 0.88 | 0.493 |  |  |  |  |  | 0.676 | 0.503 | 0.671 | 0.376 | 0.366
NCI-H522 | 0.939 | 0.903 | 0.923 | 0.807 |  | 0.736 |  |  |  |  |  |  |  |  |  | 
NCI-H1623 | 0.853 | 0.893 | 1.07 | 0.629 |  | 0.631 |  |  |  |  |  |  |  |  |  | 
NCI-H1395 | 0.97 | 0.758 | 1 | 0.73 | 1.14 | 0.785 |  |  |  |  |  | 1.18 | 1.16 | 0.924 | 0.857 | 0.77
ChaGo-K-1 | 0.973 | 0.875 | 1.02 | 0.871 |  | 0.75 | 0.987 | 1.17 | 0.554 | 0.838 | 0.762 |  |  |  |  | 
NCI-H1944 | 0.94 | 1.13 | 0.915 | 0.79 | 0.842 | 0.447 |  |  |  |  |  | 1.11 | 1.14 | 1.05 | 0.771 | 0.836
